Results on ten compounds are retold here after patent US20250042876A1, “HERBICIDAL PYRAZOLE PYRIMIDINE COMPOUNDS” (SYNGENTA CROP PROTECTION AG, priority 2021, published 2025).

Format in all cases: in vivo
Common to all, as to settings: 250 g/ha, evaluated after 13 days

Experiment [1] concerns Amaranthus palmeri (AMAPA). Nature of the experiment: Post-emergence herbicidal test, glasshouse. Here is the method:
(§1) Seeds of a variety of test species are sown in standard soil in pots Amaranthus palmeri (AMAPA), Amaranthus retoflexus (AMARE), Setaria faberi (SETFA), Echinochloa crus-galli (ECHCG), Ipomoea hederacea (IPOHE)). After cultivation for one day (pre-emergence) or after 8 days cultivation (post-emergence) under controlled conditions in a glasshouse (at 24/16° C., day/night; 14 hours light; 65% humidity), the plants are sprayed with an aqueous spray solution derived from the formulation of the technical active ingredient in acetone/water (50:50) solution containing 0.5% Tween 20 (polyoxyethelyene sorbitan monolaurate, CAS RN 9005-64-5). Compounds are applied at 250 g/ha unless otherwise stated. The test plants are then grown in a glasshouse under controlled conditions in a glasshouse (at 24/16° C., day/night; 14 hours light; 65% humidity) and watered twice daily. After 13 days for pre and post-emergence, the test is evaluated for the percentage damage caused to the plant. The biological activities are shown in the following table on a five-point scale (5=81-100%; 4=61-80%; 3=41-60%; 2=21-40%; 1=0-20%).

Experiment [2] has as its system Amaranthus retoflexus (AMARE). Nature of the experiment: Post-emergence herbicidal test, glasshouse. Here is the method: as §1
Experiment [3] deals with Echinochloa crus-galli (ECHCG). Briefly: Post-emergence herbicidal test, glasshouse. How it is done:
as §1

The subject of experiment [4] is Ipomoea hederacea (IPOHE). Nature of the experiment: Post-emergence herbicidal test, glasshouse. How it is done:
as §1

The test system of experiment [5] is Setaria faberi (SETFA). Nature of the experiment: Post-emergence herbicidal test, glasshouse. Here is the method:
as §1

In experiment [6] the test system is Amaranthus palmeri (AMAPA). Briefly: Pre-emergence herbicidal test, glasshouse. How it is done: as §1
Experiment [7] has as its system Amaranthus retoflexus (AMARE). Briefly: Pre-emergence herbicidal test, glasshouse. Here is the method:
as §1

Experiment [8] deals with Echinochloa crus-galli (ECHCG). Nature of the experiment: Pre-emergence herbicidal test, glasshouse. Here is the method:
as §1

Experiment [9] has as its system Ipomoea hederacea (IPOHE). Briefly: Pre-emergence herbicidal test, glasshouse. Here is the method: as §1
Experiment [10] deals with Setaria faberi (SETFA). Briefly: Pre-emergence herbicidal test, glasshouse. How it is done:
as §1

For `FC(F)(F)c1ccc(-n2nc(C(F)(F)F)cc2Cc2ncc(Cl)cn2)cc1` [Compound 1.001, 5-chloro-2-[[5-(trifluoromethyl)-2-[4-(trifluoromethyl)phenyl]pyrazol-3-yl]methyl]pyrimidine], the “AMAPA percentage damage caused to the plant (five-point scale)” value (from here on “AMAPA percentage damage caused”) in experiment [1] is given as 4 (4=61-80%); in experiment [6], 5 (5=81-100%). Also, the results for the “AMARE percentage damage caused to the plant (five-point scale)” value (“AMARE percentage damage caused” below) in experiment [2] and in experiment [7] were 4 (4=61-80%) and 5 (5=81-100%), respectively. For the same compound, the “ECHCG percentage damage caused to the plant (five-point scale)” value (shortened to “ECHCG percentage damage caused”) in [3] was 4 (4=61-80%); in experiment [8] it was 5 (5=81-100%). Moreover, the “IPOHE percentage damage caused to the plant (five-point scale)” value (“IPOHE percentage damage caused” for short) is recorded as 4 (4=61-80%) in experiment [4] and 5 (5=81-100%) in experiment [9]. For the same compound, the “SETFA percentage damage caused to the plant (five-point scale)” value (“SETFA percentage damage caused” below) is 4 (4=61-80%) in experiment [5] and 5 (5=81-100%) in experiment [10].

For `FC(F)(F)c1ccc(-n2nc(C(F)(F)F)cc2Cc2ncc(Br)cn2)cc1` [Compound 1.002, 5-bromo-2-[[5-(trifluoromethyl)-2-[4-(trifluoromethyl)phenyl]pyrazol-3-yl]methyl]pyrimidine], the results for the “AMAPA percentage damage caused” value in experiment [1] and in experiment [6] were 4 (4=61-80%) and 5 (5=81-100%), respectively. In addition, the “AMARE percentage damage caused” value is recorded as 4 (4=61-80%) in experiment [2] and 5 (5=81-100%) in experiment [7]. Besides, the “ECHCG percentage damage caused” value in experiment [3] and in [8] was 5 (5=81-100%) throughout. The entries for the “IPOHE percentage damage caused” value in [4] and in experiment [9] were 4 (4=61-80%) and 5 (5=81-100%), respectively. Also, the “SETFA percentage damage caused” value in [5] and in [10] was 4 (4=61-80%) each time.

As for `Fc1cnc(Cc2cc(C(F)(F)F)nn2-c2ccc(C(F)(F)F)cc2)nc1` [Compound 1.003], the “AMAPA percentage damage caused” value in experiment [1] and in experiment [6] was 5 (5=81-100%) throughout. The “AMARE percentage damage caused” value in [2] and in experiment [7] was 5 (5=81-100%) throughout. In addition, the “ECHCG percentage damage caused” value in experiment [3] and in experiment [8] was 5 (5=81-100%) in each case. The “IPOHE percentage damage caused” value in experiment [4] and in experiment [9] was 5 (5=81-100%) throughout. Besides, the “SETFA percentage damage caused” value in experiment [5] is given as 4 (4=61-80%); in experiment [10] it was 5 (5=81-100%).

In the case of `COc1cnc(Cc2cc(C(F)(F)F)nn2-c2ccc(C(F)(F)F)cc2)nc1` [Compound 1.004], the “AMAPA percentage damage caused” value in experiment [1] and in experiment [6] was 5 (5=81-100%) each time. The “AMARE percentage damage caused” value in experiment [2] and in experiment [7] was 5 (5=81-100%) throughout. Besides, the “ECHCG percentage damage caused” value in experiment [3] and in experiment [8] was 5 (5=81-100%) in each case. For the same compound, the results for the “IPOHE percentage damage caused” value in experiment [4] and in experiment [9] were 4 (4=61-80%) and 5 (5=81-100%), respectively. Further, the “SETFA percentage damage caused” value in experiment [5] and in [10] was 5 (5=81-100%) in each case.

For `N#Cc1cc(Cc2ncc(Cl)cn2)n(-c2ccc(F)c(F)c2)n1` [Compound 1.025, 5-[(5-chloropyrimidin-2-yl)methyl]-1-(3,4-difluorophenyl)pyrazole-3-carbonitrile], the “AMARE percentage damage caused” value in [2] and in experiment [7] was 5 (5=81-100%) throughout. In addition, the “ECHCG percentage damage caused” value in experiment [3] and in experiment [8] was 5 (5=81-100%) throughout. Moreover, the “IPOHE percentage damage caused” value in [4] was 4 (4=61-80%); in experiment [9], 5 (5=81-100%). Further, the “SETFA percentage damage caused” value in experiment [5] is listed as 5 (5=81-100%). The “AMAPA percentage damage caused” value in [6] is 5 (5=81-100%).

As for `Fc1cc(-n2nc(C(F)(F)F)cc2Cc2ncc(Cl)cn2)cnc1Cl` [Compound 1.026, 5-chloro-2-[[2-(6-chloro-5-fluoro-3-pyridyl)-5-(trifluoromethyl)pyrazol-3-yl]methyl]pyrimidine], the “AMARE percentage damage caused” value in experiment [2] and in experiment [7] was 5 (5=81-100%) in each case. The “ECHCG percentage damage caused” value in [3] and in [8] was 5 (5=81-100%) each time. Besides, the “IPOHE percentage damage caused” value was 2 (2=21-40%) in [4] and 5 (5=81-100%) in [9]. Also, the “SETFA percentage damage caused” value in [5] is given as 5 (5=81-100%). The “AMAPA percentage damage caused” value in experiment [6] was 5 (5=81-100%).

Consider `Fc1ccc(-n2nc(C(F)F)cc2Cc2ncc(Cl)cn2)cc1` [Compound 1.033], for which the “AMAPA percentage damage caused” value in [1] and in experiment [6] was 5 (5=81-100%) each time. Besides, the “AMARE percentage damage caused” value in experiment [2] and in experiment [7] was 5 (5=81-100%) in each case. Besides, the “ECHCG percentage damage caused” value is reported as 4 (4=61-80%) in experiment [3] and 5 (5=81-100%) in experiment [8]. Also, the entries for the “IPOHE percentage damage caused” value in experiment [4] and in experiment [9] were 4 (4=61-80%) and 5 (5=81-100%), respectively.

Turning to `FC(F)(F)c1ccc(-n2nc(C(F)(F)F)c(Cl)c2Cc2ncc(Br)cn2)cc1` [Compound 1.034, 5-bromo-2-[[4-chloro-5-(trifluoromethyl)-2-[4-(trifluoromethyl)phenyl]pyrazol-3-yl]methyl]pyrimidine], the “AMAPA percentage damage caused” value in experiment [1] and in experiment [6] was 5 (5=81-100%) in each case. Moreover, the “AMARE percentage damage caused” value is 4 (4=61-80%) in experiment [2] and 5 (5=81-100%) in experiment [7]. Also, the figures for the “ECHCG percentage damage caused” value in experiment [3] and in experiment [8] were 4 (4=61-80%) and 5 (5=81-100%), respectively. Besides, the figures for the “IPOHE percentage damage caused” value in experiment [4] and in experiment [9] were 4 (4=61-80%) and 5 (5=81-100%), respectively.

On to `FC(F)(F)c1ccc(-n2nc(C(F)(F)Cl)cc2Cc2ncc(Cl)cn2)cc1` [Compound 1.036], for which the “AMARE percentage damage caused” value in experiment [2] and in experiment [7] was 5 (5=81-100%) in each case. Also, the “ECHCG percentage damage caused” value in experiment [3] and in experiment [8] was 5 (5=81-100%) in each case. For the same compound, the figures for the “IPOHE percentage damage caused” value in experiment [4] and in experiment [9] were 3 (3=41-60%) and 5 (5=81-100%), respectively. Moreover, the “SETFA percentage damage caused” value in [5] and in [10] was 5 (5=81-100%) each time. In addition, in [6], the “AMAPA percentage damage caused” value is 5 (5=81-100%).

For the compound `Cc1ccc(-n2nc(C(F)(F)F)cc2Cc2ncc(Cl)cn2)cc1` [Compound 1.037, 5-chloro-2-[[2-(p-tolyl)-5-(trifluoromethyl)pyrazol-3-yl]methyl]pyrimidine], the “AMARE percentage damage caused” value in [2] and in experiment [7] was 5 (5=81-100%) in each case. Further, the “ECHCG percentage damage caused” value in [3] was 4 (4=61-80%); in experiment [8], 5 (5=81-100%). Moreover, the “IPOHE percentage damage caused” value in experiment [4] is 3 (3=41-60%); in experiment [9], 1 (1=0-20%). Further, the “SETFA percentage damage caused” value in [5] and in [10] was 5 (5=81-100%) in each case. In addition, the “AMAPA percentage damage caused” value in experiment [6] is recorded as 5 (5=81-100%).
